# From ChEMBL document CHEMBL5154879, “Induction of Genes Implicated in Stress Response and Autophagy by a Novel Quinolin-8-yl-nicotinamide QN523 in Pancreatic Cancer” (J Med Chem, 2022)
# pIC50: −log10 of the molar value. Calls of active or inactive are those of the source. The calls are words filed in the database; no cut-off is given here.
# Experiments:
# [1] = system: SNU-475; assay: Antiproliferative activity against human SNU-475 cells assessed as inhibition of cell growth incubated for 72 hrs by MTT assay; type: functional, cell-based; conditions: SNU-475, 72 h
# [2] = Downregulation of LMNB2 gene expression in human MIA PaCa-2 cells assessed as fold change in LMNB2 expression at 1 uM incubated for 24 hrs by Bru-seq analysis relative to control; type: functional
# [3] = system: HCT-116; assay: Antiproliferative activity against human HCT-116 cells assessed as inhibition of cell growth incubated for 72 hrs by MTT assay; type: functional, cell-based; conditions: HCT-116, 72 h
# [4] = system: SNU-387; assay: Antiproliferative activity against human SNU-387 cells assessed as inhibition of cell growth incubated for 72 hrs by MTT assay; type: functional, cell-based; conditions: SNU-387, 72 h
# [5] = system: MIA PaCa-2; assay: Antitumour activity against of human MIA PaCa-2 xenografted in NOD/SCID mouse assessed as reduction in Ki67 expression in tumor by immunohistochemical assay; type: functional
# [6] = Downregulation of SEMA6B gene expression in human MIA PaCa-2 cells assessed as fold change in SEMA6B expression at 1 uM incubated for 24 hrs by Bru-seq analysis relative to control; type: functional
# [7] = system: MIA PaCa-2; assay: Induction of cell cycle arrest in human MIA PaCa-2 cells assessed as accumulation of cells in G2/M phase at 0.1 uM incubated for 48 hrs by RNase/propidium iodide staining based flow cytometry analysis (reference value: 2.71%); type: functional
# [8] = Toxicity in NOD/SCID mouse xenografted with human MIA PaCa-2 cells assessed as change in body weight at 30 mg/kg, ip administered five times a week starting from day 44 to 51 post first dose; type: organism-based; conditions: in vivo, 1224 h, time 51 day
# [9] = system: MIA PaCa-2; assay: Downregulation of E2F target gene expression in human MIA PaCa-2 cells by gene set enrichment analysis; type: functional, cell-based
# [10] = system: MIA PaCa-2; assay: Induction of apoptosis in human MIA PaCa-2 cells assessed as viable cells at 0.1 uM incubated for 24 hrs by Annexin V-FITC/PI staining based flow cytometry analysis (reference value: 90.2%); type: functional; conditions: read-out: Activity
# [11] = system: MIA PaCa-2; assay: Downregulation of chromosomal proteins expression in human MIA PaCa-2 cells; type: functional, cell-based
# [12] = system: MIA PaCa-2; assay: Induction of cell cycle arrest in human MIA PaCa-2 cells assessed as accumulation of cells at S phase at 0.5 uM incubated for 24 hrs by RNase/propidium iodide staining based flow cytometry analysis (Rvb =27.6 %); type: functional
# [13] = Downregulation of CXXC5 gene expression in human MIA PaCa-2 cells assessed as fold change in CXXC5 expression at 1 uM incubated for 24 hrs by Bru-seq analysis relative to control; type: functional
# [14] = system: MIA PaCa-2; assay: Induction of autophagy in human MIA PaCa-2 cells assessed as accumulation of WIP11 marker gene expression at upto 2 uM incubated for 72 hrs by Western blot analysis; type: functional, cell-based
# [15] = system: MIA PaCa-2; assay: Upregulation of P53 pathway in human MIA PaCa-2 cells by gene set enrichment analysis; type: functional, cell-based
# [16] = Upregulation of HMOX1 gene expression in human MIA PaCa-2 cells assessed as fold change in HMOX1 expression at 1 uM incubated for 24 hrs by Bru-seq analysis relative to control; type: functional
# [17] = system: MIA PaCa-2; assay: Induction of apoptosis in human MIA PaCa-2 cells assessed as viable cells at 0.5 uM incubated for 48 hrs by Annexin V-FITC/PI staining based flow cytometry analysis (reference value: 96.3%); type: functional; conditions: read-out: Activity
# [18] = Downregulation of FGF18 gene expression in human MIA PaCa-2 cells assessed as fold change in FGF18 expression at 1 uM incubated for 24 hrs by Bru-seq analysis relative to control; type: functional
# [19] = Upregulation of […] gene expression in human MIA PaCa-2 cells assessed as fold change in […] expression at 1 uM incubated for 24 hrs by Bru-seq analysis relative to control; type: functional
# [20] = system: Jurkat; assay: Antiproliferative activity against human Jurkat cells assessed as inhibition of cell growth incubated for 72 hrs by MTT assay; type: functional, cell-based
# [21] = system: MIA PaCa-2; assay: Induction of autophagy in human MIA PaCa-2 cells assessed as accumulation of LC3B marker gene expression at upto 2 uM incubated for 72 hrs by Western blot analysis; type: functional, cell-based
# [22] = system: MIA PaCa-2; assay: Downregulation of mitotic spindle gene expression in human MIA PaCa-2 cells by gene set enrichment analysis; type: functional, cell-based
# [23] = Upregulation of OSGIN1 gene expression in human MIA PaCa-2 cells assessed as fold change in OSGIN1 expression at 1 uM incubated for 24 hrs by Bru-seq analysis relative to control; type: functional
# [24] = system: MIA PaCa-2; assay: Induction of cell cycle arrest in human MIA PaCa-2 cells assessed as accumulation of cells in G2/M phase at 0.1 uM incubated for 24 hrs by RNase/propidium iodide staining based flow cytometry analysis (reference value: 8.11%); type: functional
# [25] = Upregulation of TRIB3 gene expression in human MIA PaCa-2 cells assessed as fold change in TRIB3 expression at 1 uM incubated for 24 hrs by Bru-seq analysis relative to control; type: functional
# [26] = Upregulation of SERPINB8 gene expression in human MIA PaCa-2 cells assessed as fold change in SERPINB8 expression at 1 uM incubated for 24 hrs by Bru-seq analysis relative to control; type: functional
# [27] = Toxicity in NOD/SCID mouse xenografted with human MIA PaCa- 2 cells assessed as morphological changes in pancreas at 10 to 20 mg/kg, ip administered five times a week for 44 days by H and E staining based inverted microscopic analysis; type: organism-based; conditions: in vivo, 1056 h, dose 10-20 mg/kg, time 44 day
# [28] = Cytotoxicity against human HPDE cells assessed as inhibition of cell growth incubated for 72 hrs by MTT assay; type: toxicity, cell-based
# [29] = Downregulation of GTSEI gene expression in human MIA PaCa-2 cells assessed as fold change in GTSEI expression at 1 uM incubated for 24 hrs by Bru-seq analysis relative to control; type: functional
# [30] = system: MIA PaCa-2; assay: Induction of autophagy in human MIA PaCa-2 cells assessed as accumulation of GABARAPL1 marker gene expression at upto 2 uM incubated for 72 hrs by Western blot analysis; type: functional, cell-based
# [31] = system: MIA PaCa-2; assay: Upregulation of GDF15 gene expression in human MIA PaCa-2 cells incubated for 72 hrs by Western blot analysis; type: functional, cell-based; conditions: dose <= 600.0 µM, DDE = dose-dependent effect
# [32] = system: MIA PaCa-2; assay: Induction of circadian rhythm signaling pathway in human MIA PaCa-2 cells by ingenuity pathway analysis; type: functional, cell-based
# [33] = system: MIA PaCa-2; assay: Induction of apoptosis in human MIA PaCa-2 cells assessed as early apoptotic cells at 0.5 uM incubated for 24 hrs by Annexin V-FITC/PI staining based flow cytometry analysis (reference value: 5.1%); type: functional
# [34] = Downregulation of CCNF gene expression in human MIA PaCa-2 cells assessed as fold change in CCNF expression at 1 uM incubated for 24 hrs by Bru-seq analysis relative to control; type: functional
# [35] = system: MIA PaCa-2; assay: Induction of cell cycle arrest in human MIA PaCa-2 cells assessed as accumulation of cells at S phase at 0.1 uM incubated for 24 hrs by RNase/propidium iodide staining based flow cytometry analysis (Rvb =27.6 %); type: functional
structure (smiles),measurement,setting,value
O=C(Nc1cccc2cccnc12)c1cnccn1,pIC50,[1],5.57
same,fold change (FC),[2],0.46
same,pIC50,[3],7.00
same,pIC50,[4],5.24
same,Activity,[5],Active
same,fold change (FC),[6],0.43
same,Activity,[7],8.22%
same,Activity,[8],Non-Toxic
same,Activity,[9],Active
same,viability at 0.1 µM,[10],84.9%
same,Activity,[11],Active
same,Activity,[12],45.1%
same,fold change (FC),[13],0.4
same,Activity,[14],Active
same,Activity,[15],Active
same,fold change (FC),[16],13
same,viability at 0.5 µM,[17],95.3%
same,fold change (FC),[18],0.32
same,fold change (FC),[19],12.8
same,pIC50,[20],7.00
same,Activity,[21],Active
same,Activity,[22],Active
same,fold change (FC),[23],7.8
same,Activity,[24],14.9%
same,fold change (FC),[25],14.5
same,fold change (FC),[26],5.3
same,Activity,[27],Non-Toxic
same,IC50 at 72 h,[28],550 nM
same,fold change (FC),[29],0.46
same,Activity,[30],Active
same,Activity,[31],Dde
same,Activity,[32],Active
same,Activity,[33],10.1%
same,fold change (FC),[34],0.36
same,Activity,[35],33.2%
